Laboratory results taken from ChEMBL document CHEMBL4024727, “Synthesis and antimycobacterial screening of new thiazolyl-oxazole derivatives” (Eur J Med Chem, 2017).
Values after ≈ are worked out from the molar mass of the structure shown.

Experiments:
[1] = system: Mycobacterium tuberculosis; assay: Growth inhibition of Mycobacterium tuberculosis H37Ra ATCC 25177 at 30 ug/ml by XTT dye based two-fold dilution method relative to control; format: functional; conditions: read-out: GI
[2] = system: Mycobacterium tuberculosis; assay: Growth inhibition of Mycobacterium tuberculosis H37Ra ATCC 25177 at 10 ug/ml by XTT dye based two-fold dilution method relative to control; format: functional; conditions: read-out: GI
[3] = system: Mycobacterium tuberculosis; assay: Growth inhibition of Mycobacterium tuberculosis H37Ra ATCC 25177 at 3 ug/ml by XTT dye based two-fold dilution method relative to control; format: functional; conditions: read-out: GI
[4] = system: Mycobacterium tuberculosis; assay: Growth inhibition of Mycobacterium bovis BCG ATCC 35743 at 30 ug/ml by nitrate reductase based two-fold dilution assay relative to control; format: functional; conditions: BCG str. ATCC 35743, read-out: GI
[5] = system: Mycobacterium tuberculosis; assay: Growth inhibition of Mycobacterium bovis BCG ATCC 35743 at 10 ug/ml by nitrate reductase based two-fold dilution assay relative to control; format: functional; conditions: BCG str. ATCC 35743, read-out: GI
[6] = system: Mycobacterium tuberculosis; assay: Growth inhibition of Mycobacterium bovis BCG ATCC 35743 at 1 ug/ml by nitrate reductase based two-fold dilution assay relative to control; format: functional; conditions: BCG str. ATCC 35743, read-out: GI
[7] = system: Mycobacterium tuberculosis; assay: Antitubercular activity against Mycobacterium tuberculosis H37Ra ATCC 25177 dormant stage by XTT dye based two-fold dilution method; format: functional
[8] = system: Mycobacterium tuberculosis; assay: Antitubercular activity against Mycobacterium bovis BCG ATCC 35743 dormant stage by nitrate reductase based two-fold dilution assay; format: functional; conditions: BCG str. ATCC 35743
[9] = system: Escherichia coli; assay: Growth inhibition of Escherichia coli NCIM 2576 at 30 ug/ml measured after 8 hrs relative to control; format: functional; conditions: NCIM 2576, 8 h, read-out: GI
[10] = system: Escherichia coli; assay: Growth inhibition of Escherichia coli NCIM 2576 at 10 ug/ml measured after 8 hrs relative to control; format: functional; conditions: NCIM 2576, 8 h, read-out: GI
[11] = system: Escherichia coli; assay: Growth inhibition of Escherichia coli NCIM 2576 at 1 ug/ml measured after 8 hrs relative to control; format: functional; conditions: NCIM 2576, 8 h, read-out: GI
[12] = system: Pseudomonas fluorescens; assay: Growth inhibition of Pseudomonas fluorescens NCIM 2059 at 30 ug/ml measured after 8 hrs relative to control; format: functional; conditions: NCIM 2059, 8 h, read-out: GI
[13] = system: Pseudomonas fluorescens; assay: Growth inhibition of Pseudomonas fluorescens NCIM 2059 at 10 ug/ml measured after 8 hrs relative to control; format: functional; conditions: NCIM 2059, 8 h, read-out: GI
[14] = system: Pseudomonas fluorescens; assay: Growth inhibition of Pseudomonas fluorescens NCIM 2059 at 1 ug/ml measured after 8 hrs relative to control; format: functional; conditions: NCIM 2059, 8 h, read-out: GI
[15] = system: Staphylococcus aureus; assay: Growth inhibition of Staphylococcus aureus NCIM 2602 at 30 ug/ml measured after 12 hrs relative to control; format: functional; conditions: NCIM 2602, 12 h, read-out: GI
[16] = system: Staphylococcus aureus; assay: Growth inhibition of Staphylococcus aureus NCIM 2602 at 10 ug/ml measured after 12 hrs relative to control; format: functional; conditions: NCIM 2602, 12 h, read-out: GI
[17] = system: Staphylococcus aureus; assay: Growth inhibition of Staphylococcus aureus NCIM 2602 at 1 ug/ml measured after 12 hrs relative to control; format: functional; conditions: NCIM 2602, 12 h, read-out: GI
[18] = system: Bacillus subtilis; assay: Growth inhibition of Bacillus subtilis NCIM 2162 at 30 ug/ml measured after 12 hrs relative to control; format: functional; conditions: NCIM 2162, 12 h, read-out: GI
[19] = system: Bacillus subtilis; assay: Growth inhibition of Bacillus subtilis NCIM 2162 at 10 ug/ml measured after 12 hrs relative to control; format: functional; conditions: NCIM 2162, 12 h, read-out: GI
[20] = system: Bacillus subtilis; assay: Growth inhibition of Bacillus subtilis NCIM 2162 at 1 ug/ml measured after 12 hrs relative to control; format: functional; conditions: NCIM 2162, 12 h, read-out: GI
[21] = system: Escherichia coli; assay: Antibacterial activity against Escherichia coli NCIM 2576 measured after 8 hrs; format: functional; conditions: NCIM 2576, 8 h
[22] = system: Pseudomonas fluorescens; assay: Antibacterial activity against Pseudomonas fluorescens NCIM 2059 measured after 8 hrs; format: functional; conditions: NCIM 2059, 8 h
[23] = system: Staphylococcus aureus; assay: Antibacterial activity against Staphylococcus aureus NCIM 2602 measured after 12 hrs; format: functional; conditions: NCIM 2602, 12 h
[24] = system: Bacillus subtilis; assay: Antibacterial activity against Bacillus subtilis NCIM 2162 measured after 12 hrs; format: functional; conditions: NCIM 2162, 12 h
[25] = (§1) Growth inhibition of human HeLa cells by MTT assay; format: cell-based; conditions: HeLa cells
[26] = system: HeLa; assay: as §1; format: cell-based; conditions: hela
[27] = (§2) Growth inhibition of human A549 cells by MTT assay; format: cell-based; conditions: A549 cells
[28] = system: A549; assay: as §2; format: cell-based; conditions: a549
[29] = (§3) Growth inhibition of human PANC1 cells by MTT assay; format: cell-based, PANC-1; conditions: PANC-1 cells
[30] = system: PANC-1; assay: as §3; format: cell-based; conditions: panc-1
[31] = Selectivity index, ratio of GI50 for human HeLa cells to MIC for Mycobacterium tuberculosis H37Ra ATCC 25177 dormant stage; format: toxicity, cell-based; conditions: read-out: Selectivity Index
[32] = Selectivity index, ratio of GI50 for human HeLa cells to MIC for Mycobacterium bovis BCG ATCC 35743 dormant stage; format: toxicity, cell-based; conditions: read-out: Selectivity Index
[33] = Selectivity index, ratio of GI50 for human A549 cells to MIC for Mycobacterium tuberculosis H37Ra ATCC 25177 dormant stage; format: toxicity; conditions: read-out: Selectivity Index
[34] = Selectivity index, ratio of GI50 for human A549 cells to MIC for Mycobacterium bovis BCG ATCC 35743 dormant stage; format: toxicity; conditions: read-out: Selectivity Index
[35] = Selectivity index, ratio of GI50 for human PANC1 cells to MIC for Mycobacterium tuberculosis H37Ra ATCC 25177 dormant stage; format: toxicity; conditions: PANC-1 cells, read-out: Selectivity Index
[36] = Selectivity index, ratio of GI50 for human PANC1 cells to MIC for Mycobacterium bovis BCG ATCC 35743 dormant stage; format: toxicity; conditions: PANC-1 cells, read-out: Selectivity Index

| SMILES | inhibition of growth at 30 µg/mL [1] | inhibition of growth at 10 µg/mL [2] | inhibition of growth at 3 µg/mL [3] | inhibition of growth at 30 µg/mL [4] | inhibition of growth at 10 µg/mL [5] | inhibition of growth at 1 µg/mL [6] | IC50 [7] | MIC90 [7] | IC50 [8] | MIC90 [8] | inhibition of growth at 30 µg/mL [9] | inhibition of growth at 10 µg/mL [10] | inhibition of growth at 1 µg/mL [11] | inhibition of growth at 30 µg/mL [12] | inhibition of growth at 10 µg/mL [13] | inhibition of growth at 1 µg/mL [14] | inhibition of growth at 30 µg/mL [15] | inhibition of growth at 10 µg/mL [16] | inhibition of growth at 1 µg/mL [17] | inhibition of growth at 30 µg/mL [18] | other results |
| --- | --- | --- | --- | --- | --- | --- | --- | --- | --- | --- | --- | --- | --- | --- | --- | --- | --- | --- | --- | --- | --- |
| Cc1nc(-c2ccccc2)oc1-c1csc(Cc2ccc(Cl)cc2)n1 | 98% | 93% | 92% | 97% | 97% | 96% | 0.35 µM | 7.19 µM (≈ 2.64 µg/mL) | 0.32 µM | 5.8 µM (≈ 2.13 µg/mL) | 97.9% | 84.5% | 78.7% | 95% | 87.3% | 81% | 92.4% | 85.6% | 79.1% | 90.4% | inhibition of growth at 10 µg/mL [19]: 85.2%; inhibition of growth at 1 µg/mL [20]: 74.2%; MIC [21]: 18.3 µg/mL; MIC [22]: 18 µg/mL; MIC [23]: 22.7 µg/mL; MIC [24]: 27.6 µg/mL; GI50 [25]: 124 µg/mL (≈ 339 µM); GI90 [26]: > 250 µg/mL; GI50 [27]: > 250 µg/mL; GI90 [28]: > 250 µg/mL; GI50 [29]: > 250 µg/mL; GI90 [30]: > 250 µg/mL; selectivity ratio [31]: 47; selectivity ratio [32]: 58; selectivity ratio [33]: 95; selectivity ratio [34]: 117; selectivity ratio [35]: 95; selectivity ratio [36]: 117 |
| Cc1nc(-c2ccccc2)oc1-c1csc(Cc2cccc(Cl)c2)n1 | 98% | 97% | 96% | 95% | 94% | 94% | 0.23 µM | 3.49 µM (≈ 1.28 µg/mL) | 0.76 µM | 3.76 µM (≈ 1.38 µg/mL) | 95.9% | 88.7% | 74.7% | 95.8% | 82.7% | 79.3% | 92.2% | 81.3% | 73.2% | 92% | inhibition of growth at 10 µg/mL [19]: 86.8%; inhibition of growth at 1 µg/mL [20]: 80.3%; MIC [21]: 15.4 µg/mL; MIC [22]: 20.9 µg/mL; MIC [23]: 25.6 µg/mL; MIC [24]: 21.7 µg/mL; GI50 [25]: 68.7 µg/mL (≈ 187 µM); GI90 [26]: > 250 µg/mL; GI50 [27]: > 250 µg/mL; GI90 [28]: > 250 µg/mL; GI50 [29]: > 250 µg/mL; GI90 [30]: > 250 µg/mL; selectivity ratio [31]: 54; selectivity ratio [32]: 50; selectivity ratio [33]: 195; selectivity ratio [34]: 181; selectivity ratio [35]: 195; selectivity ratio [36]: 181 |
| Cc1nc(-c2ccc(F)cc2)oc1-c1csc(Cc2cccc(Cl)c2)n1 | 96% | 92% | 93% | 97% | 95% | 98% | 0.23 µM | 7.38 µM (≈ 2.84 µg/mL) | 0.36 µM | 6.26 µM (≈ 2.41 µg/mL) | 91.2% | 86.1% | 70.5% | 93.3% | 85.7% | 72.5% | 95.6% | 82.4% | 71.7% | 93.7% | inhibition of growth at 10 µg/mL [19]: 85.4%; inhibition of growth at 1 µg/mL [20]: 79.7%; MIC [21]: 69.6 µM; MIC [22]: 57.4 µM; MIC [23]: 55.6 µM; MIC [24]: 53.8 µM; GI50 [25]: 168 µg/mL (≈ 436 µM); GI90 [26]: > 250 µg/mL; GI50 [27]: > 250 µg/mL; GI90 [28]: > 250 µg/mL; GI50 [29]: > 250 µg/mL; GI90 [30]: > 250 µg/mL; selectivity ratio [31]: 59; selectivity ratio [32]: 70; selectivity ratio [33]: 88; selectivity ratio [34]: 104; selectivity ratio [35]: 88; selectivity ratio [36]: 104 |
